Test results as given in PubChem BioAssay AID2401 (Southern Research Specialized Biocontainment Screening …, 2010).

Test system: S. Typhimurium GFP reporter counter-screen, fluorescence, 4 h
Assay: nmpC-GFP reporter counter-screen in S. Typhimurium, dose response, counter-screen for PhoP regulon inhibitor project, Salmonella Typhimurium, GFP fluorescence (AID 2401);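 also: S. typhimurium with Mg-insensitive nmpC-GFP reporter grown at 10 µM Mg2+; drop in reporter fluorescence reflects general culture growth inhibition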

SMILES	IC50 [µM]
COc1c(N2CCN(C(=S)Nc3ccc(F)cc3)C(C)C2)c(F)cc2c(=O)c(C(=O)O)cn(C3CC3)c12 (centres undefined)	15.7
C[CH2][Hg][S]c1ccccc1C(=O)O	54.9
Cc1ccccc1OCc1n(CC(=O)OC2CC(C)CCC2C(C)C)c2ccccc2[n+]1C (centres undefined)	65.6
C/C(CC(=O)Nc1ccc(Cl)c(C(F)(F)F)c1)=N\NC(=O)c1cc2ccccc2cc1O	80.6
CCCCCCCCCCCCCCCC[N+](C)(C)C	30.5
N=c1n(Cc2ccccc2)c2ccccc2n1CC(O)COc1ccc(Cl)cc1Cl (centres undefined)	25.9
Oc1cccc2ccc(Nc3ccccn3)nc12	10.7
Clc1ccc(-c2c[n+](Cc3ccc(Cl)cc3Cl)c3n2CCCCC3)cc1	98.8
O=C(N/N=C/c1cccc([N+](=O)[O-])c1O)c1cccs1	16.8
CC(=O)NC(c1ccc2ccccc2c1)c1ccc2cccnc2c1O (centres undefined)	100
Oc1cc(Cl)ccc1Oc1ccc(Cl)cc1Cl	0.49
COc1ccc(CN2C(=O)Cc3c2nc(N)c2c(N)nc(N4CCCCC4)c(C#N)c32)cc1	120
O=[N+]([O-])c1cc(F)c2cccnc2c1O	9.05
O=C(NNC(=O)c1cnccn1)c1ccc(Cl)cc1	117
Oc1c(C(Nc2nc3ccccc3s2)c2ccco2)ccc2cccnc12 (centres undefined)	104
CCOc1ccc(Nc2c3ccccc3nc3ccccc23)cc1	77.3
NC1CCN(c2c(F)cc3c(=O)c(C(=O)O)cn(C4CC4)c3c2Cl)C1 (centres undefined)	< 0.23
COc1ccc(-c2ccc3c(N)c(C(=O)c4cccc(OC)c4)sc3n2)cc1	83.2
CCCC(=O)NC(c1ccc(C)cc1)c1ccc2cccnc2c1O (centres undefined)	100
CCn1cc(C(=O)O)c(=O)c2cc(F)c(N3CCN(C(=S)NC(=O)c4cccc(F)c4)CC3)cc21	69.6
NC1=NC[C@H](Cc2ccccc2)N1CCCCC1CCCCC1	45.9
CC1CCC(C(C)C)C(OC(=O)Cn2c(COc3ccccc3)[n+](C)c3ccccc32)C1 (centres undefined)	40.4
CC(C)(C)/C(O)=C/c1nc2cc(Cl)ccc2oc1=O	65.1
CCn1cc(C(=O)O)c(=O)c2cc(F)c(N3CCN(C(=S)Nc4ccccc4OC)CC3)cc21	38.8
Oc1c(C(c2ccccn2)N2CCOCC2)ccc2cccnc12 (centres undefined)	88.6

SMILES	IC50 [µM]
Nc1[nH]c(=O)ncc1F	92.7
CNc1cc(Cl)c2nonc2c1[N+](=O)[O-]	37.7
CN(C)c1ccc(/C=C/c2ccc3c4ccccc4ccc3[n+]2-c2ccccc2)cc1	18.8
COc1c(N2CCN(C(=S)NC3CC4CCC3C4)C(C)C2)c(F)cc2c(=O)c(C(=O)O)cn(C3CC3)c12 (centres undefined)	72.9
Clc1ccc(CN2CCC(c3nc4ccc(Cl)cc4[nH]3)CC2)cc1	22.4
C=CS(=O)(=O)c1ccc(Oc2ccc(S(=O)(=O)C=C)cc2)cc1	111
COc1cc(C(=O)Oc2c(CN3CCOCC3)cc(Cl)c3cccnc23)cc(OC)c1OC	126
Nc1cc2nsnc2cc1Br	77.3
O=C(O)Cc1sc(Nc2ccc(Cl)cc2)nc1-c1cccs1	147
O=C1C(=O)c2ccccc2-c2ccccc21	10.7
O=C(Oc1c(Cl)cc(Cl)c2cccnc12)c1ccco1	21.6
CN(C)c1ccc(O)c2c1CC1CC3[C@@H](N(C)C)C(=O)C(C(N)=O)=C(O)[C@]3(O)C(=O)C1=C2O (some centres undefined)	4.76
Oc1ccc(Cl)cc1Cc1cc(Cl)ccc1O	38.6
CCCCNC(=O)c1cn(CC)c2cc(N3CCN(C)CC3)c(F)cc2c1=O	41.8
CCC(C)N1CCC2(CC1)N=c1c(c3c4c5c(C)c(O)c3c(O)c1=NC(=O)C(C)=CC=C[C@H](C)[C@H](O)[C@@H](C)[C@@H](O)[C@@H](C)[C@H](OC(C)=O)[C@H](C)[C@@H](OC)C=CO[C@@](C)(O5)C4=O)N2 (some centres undefined)	2.28
Cc1ccc(C(=O)O)cc1N=Cc1cc(Br)cc(Br)c1O	85.6
CCN1CCN(C(c2cccnc2)c2cc(Cl)c3cccnc3c2O)CC1 (centres undefined)	36
CC1CCCC(C)N1/N=C/c1c[nH]c2ccc(Br)cc12 (centres undefined)	88.9
Oc1cccc(Nc2nc(NCC3CCCO3)c3ccccc3n2)c1 (centres undefined)	99.8
O=C1OCC(CO)(CO)N=C1NNc1ccc(Cl)c(Cl)c1	109
O=[N+]([O-])c1cc(Cl)c2cccnc2c1O	1.62
Cc1ccc(Nc2c3c(nc4ccccc24)CCC3)cc1	122
CCn1cc(C(=O)O)c(=O)c2cc(F)c(N3CCN(C(=S)NC(=O)c4cccc(C)c4)CC3)cc21	34.7
CCCCCC(CC(=O)NO)C(=O)NC(C(=O)N1CCCC1CO)C(C)C (centres undefined)	144
